Results: patent US20240391904A1, “DIHYDROPYRIMIDINE BASED COMPOUND, PREPARATION METHOD THEREFOR AND USE OF THEREOF” (CHENGDU SHIBEIKANG BIOMEDICAL TECHNOLOGY CO., LTD., priority 2021, published 2024)
Marks after values point to notes of the source that are not given here.

Key:
KM mice = assay: Mouse cough test (ammonia-induced coughing); format: in vivo; conditions: for Number of Coughs (time): mice; for duration of the cough suppression action: 30 to 120 min after administration; for reduction in the number of coughs at 3 mg/kg: compared with model group
Description: Compounds of Example 1-24 (synthesized in the inventor's laboratory), positive control drug (gefapixant, batch No: 01030-210326-2-1, purchased from Holder Pharmaceuticals), the compound of Comparative Example 1 (synthesized in the inventor's laboratory).
Healthy adult KM mice, half of them are male and half of them are female, 6 per group, weighing about 28-30 g.
Most of the animal coughing models currently reported in the literatures use mechanical, chemical and electrical stimulations to stimulate the nerves and receptors of the animals to trigger coughing. According to the characteristics of the candidate compounds and the existing similar target compounds for reference, the method of concentrated ammonia induction was initially chosen to establish the cough modeling test in mice.
Preparation of 50% ammonia solution: 2.5 ml of ammonia was dissolved in […] of a 0.9% sodium chloride solution for injection and mixed evenly.
Preparation of a solution of the compound of Comparative Example 1: 9 mg of the compound of Comparative Example 1 was weighed and dissolved in 3 ml of a 0.5% CMC-Na solution, and mixed evenly to prepare a 3 mg/ml solution.
Preparation of a solution of the example compounds: 9 mg of the example compound was weighed and dissolved in 3 ml of a 0.5% CMC-Na solution, and mixed evenly to prepare a 3 mg/ml solution.
Grouping: a positive control group, a Comparative Example 1 group, Example 1 group-Example 24 group, and a model group were set up. Six KM mice were taken from each group and administered by gavage; here, the Comparative Example 1 group was given the compound of Comparative Example 1, the positive control group was given the positive control drug (gefapixant, commercially purchased), the Example groups were given the compounds prepared in the corresponding Examples, with each group given one of three dosages: 30 mg/kg, […], and 3 mg/kg; and the model group was given the same volume of 0.5% CMC-Na solution.
30 min, 60 min or 120 min after administration, the mice were placed in a 500 ml beaker with a cotton ball (weight 100±5 mg) containing 0.3 ml of 50% ammonia.
(1) Judgment criteria of coughing: coughing was manifest in contraction of abdominal muscles or chest contraction, with mouth wide opening and a coughing sound.
(2) The number of coughs (times) within 3 min was recorded with a stopwatch, and the data were statistically analyzed by software, with the data in each group shown in mean±standard deviation. A one-way analysis of variance among the groups was conducted, and P<0.05 was considered a difference having a statistical significance.

human P2X3 receptor = target: T1, human P2X3 receptor (Homo sapiens, UniProt P56373); assay: In vitro bioactivity evaluation: FLIPR antagonist mode, HEK 293 cells stably transfected with human P2X3 receptor, BZATP agonist
T1 sequence (P56373 1-397): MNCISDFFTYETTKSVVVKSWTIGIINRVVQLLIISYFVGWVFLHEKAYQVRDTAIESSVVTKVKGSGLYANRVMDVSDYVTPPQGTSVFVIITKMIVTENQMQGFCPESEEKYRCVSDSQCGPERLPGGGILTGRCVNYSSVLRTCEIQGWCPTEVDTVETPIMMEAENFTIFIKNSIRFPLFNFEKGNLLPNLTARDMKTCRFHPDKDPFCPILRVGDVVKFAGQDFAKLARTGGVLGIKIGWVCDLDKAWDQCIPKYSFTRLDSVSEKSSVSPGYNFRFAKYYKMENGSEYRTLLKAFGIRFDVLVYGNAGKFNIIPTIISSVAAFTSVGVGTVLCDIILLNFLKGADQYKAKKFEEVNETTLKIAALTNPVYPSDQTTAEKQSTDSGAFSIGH
Description: Cell culture medium: DMEM high glucose; 10% FBS; 1% PenStrep.
The Petri dish was placed in an incubator for 1-3 minutes or until the cells were digested, 3 mL of a complete medium was then added to terminate the digestion, and the cell density was determined by a cell counter. • 2) After centrifugation at 1000 rpm/min for 5 min, the cells were resuspended in a growth medium and the volume of the suspension was adjusted to reach a cell density of 4×10^5 cells/mL (1×10^4 cells/25 μL). • 3) 10 μL of 5× Matrigel was added into a black microplate, and the microplate was placed in an incubator for 15 min. The microplate was removed and invertedly centrifuged at 300 g/min for 30 s to remove the 5× Matrigel.

[1] = 30 mg/kg by gavage, 30 min after administration, coughs within 3 min, ammonia-induced
[2] = 30 mg/kg, 30 min after administration
[3] = 30 mg/kg by gavage, 60 min after administration, coughs within 3 min (Table 5)
[4] = 3 mg/kg by gavage, 60 min after administration, coughs within 3 min
[5] = 10 mg/kg by gavage, 60 min after administration, coughs within 3 min
[6] = 30 mg/kg by gavage, 60 min after administration, coughs within 3 min (Table 6)
[7] = 30 mg/kg by gavage, 120 min after administration, coughs within 3 min

IC50 (human P2X3 receptor) [nM]	SMILES	Number of Coughs (time) (KM mice; [1])	cough suppressing effect compared with the positive compound (KM mice; [2])	other results
10.1 to 50	O=C(O)C1(Cn2c(=O)cc(Nc3ccc(Oc4ccccn4)cc3)n(Cc3ccc(Cl)cc3)c2=O)CC1 [Compound 13]	25.60 time	–	–
–	C[C@@H](Cn1c(=O)cc(Nc2ccc(Oc3ccc(Cl)cn3)cc2)n(Cc2ccc(Cl)cc2)c1=O)C(=O)NS(C)(=O)=O [Compound 21]	18.83** time	–	–
< 10	CC(C)(Cn1c(=O)cc(Nc2ccc(Oc3ccccn3)cc2)n(Cc2ccc(Cl)cc2)c1=O)C(=O)O [Compound 10]	17.20** time	stronger than that of the positive compound	duration of the cough suppression action (KM mice; 30 mg/kg): short duration of action; cough suppressing effect at 60 min (KM mice; 30 mg/kg, 60 min after administration): no cough suppressing effect at 60 min; Number of Coughs (time) (KM mice; [3]): 40.17 time
10.1 to 50	CC(C)(Cn1c(=O)cc(Nc2ccc(Oc3cnccn3)cc2)n(Cc2ccc(Cl)cc2)c1=O)C(=O)NS(C)(=O)=O [Compound 6]	17.81** time	stronger than that of the positive compound	–
10.1 to 50	COC(=O)C1(Cn2c(=O)cc(Nc3ccc(Oc4ccccn4)cc3)n(Cc3ccc(Cl)cc3)c2=O)CC1 [Compound 14]	32.17 time	–	–
< 10	C[C@@H](Cn1c(=O)cc(Nc2ccc(Oc3ccccn3)cc2)n(Cc2ccc(Cl)cc2)c1=O)C(=O)O [Compound 7]	15.20** time	stronger than that of the positive compound	reduction in the number of coughs at 3 mg/kg (KM mice; 60 min after administration): statistically significant (P<0.01) reduction in the number of coughs; cough suppressing efficacy at 10 mg/kg (KM mice; 60 min after administration): improved cough suppressing efficacy than the positive control drug; Number of Coughs (time) (KM mice; [4]): 23.34** time; Number of Coughs (time) (KM mice; [5]): 20.83**^Δ time; Number of Coughs (time) (KM mice; [3]): 15.00** time; Number of Coughs (time) (KM mice; [6]): 15.00** time; Number of Coughs (time) (KM mice; [7]): 38.13 time
–	CC(C)(Cn1c(=O)cc(Nc2ccc(Oc3cnccn3)cc2)n(Cc2ccc(Cl)cc2)c1=O)C(=O)O [Compound 5]	33.67 time	–	–
10.1 to 50	COC(=O)[C@@H](C)Cn1c(=O)cc(Nc2ccc(Oc3ccccn3)cc2)n(Cc2ccc(Cl)cc2)c1=O [Compound 8]	25.00* time	–	Number of Coughs (time) (KM mice; [3]): 27.33* time
–	C[C@@H](Cn1c(=O)cc(Nc2ccc(Oc3ccc(OC(F)(F)F)cn3)cc2)n(Cc2ccc(Cl)cc2)c1=O)C(=O)NS(C)(=O)=O [Compound 19, (S)-3-(3-(4-chlorobenzyl)-2,6-dioxo-4-(4-(5-((5-trifluoromethoxy)pyridin-2-yl)oxyphenyl)amino)-3,6-dihydropyrimidin-1(2H)-yl)-2-methyl-N-(sulfonyl)propionamide group]	17.62** time	stronger than that of the positive compound	–
< 10	COC(=O)C(C)(C)Cn1c(=O)cc(Nc2ccc(Oc3cnccn3)cc2)n(Cc2ccc(Cl)cc2)c1=O [Compound 4]	15.61** time	stronger than that of the positive compound	–
–	C[C@@H](Cn1c(=O)cc(Nc2ccc(Oc3cnccn3)cc2)n(Cc2ccc(Cl)cc2)c1=O)C(=O)O [Compound 2]	27.67* time	–	–
–	C[C@@H](Cn1c(=O)cc(Nc2ccc(Oc3ccccn3)cc2)n(Cc2ccc(C(F)(F)F)cc2)c1=O)C(=O)NS(C)(=O)=O [Compound 18]	20.57** time	–	–
50.1 to 100	C[C@@H](Cn1c(=O)cc(Nc2ccc(Oc3ccccc3)cc2)n(Cc2ccc(Cl)cc2)c1=O)C(=O)NS(C)(=O)=O [Compound 23]	34.67 time	–	–
10.1 to 50	C[C@@H](Cn1c(=O)cc(Nc2ccc(Oc3ccc(OC(F)F)cn3)cc2)n(Cc2ccc(Cl)cc2)c1=O)C(=O)NS(C)(=O)=O [Compound 20, (S)-3-(3-(4-chlorobenzyl)-2,6-dioxo-4-(4-(5-((5-difluoromethoxy)pyridin-2-yl)oxyphenyl)amino)-3,6-dihydropyrimidin-1(2H)-yl)-2-methyl-N-(sulfonyl)propionamide group]	15.17** time	stronger than that of the positive compound	–
10.1 to 50	C[C@@H](Cn1c(=O)cc(Nc2ccc(Oc3cnccn3)cc2)n(Cc2ccc(Cl)cc2)c1=O)C(=O)NS(C)(=O)=O [Compound 3]	16.21** time	stronger than that of the positive compound	reduction in the number of coughs at 3 mg/kg (KM mice; 60 min after administration): statistically significant (P<0.01) reduction in the number of coughs; cough suppressing efficacy at 10 mg/kg (KM mice; 60 min after administration): improved cough suppressing efficacy than the positive control drug; duration of the cough suppression action (KM mice; 30 mg/kg): significantly prolonged compared with that of the compound of Comparative Example 1; Number of Coughs (time) (KM mice; [4]): 21.14** time; Number of Coughs (time) (KM mice; [5]): 19.83**^Δ time; Number of Coughs (time) (KM mice; [3]): 16.02** time; Number of Coughs (time) (KM mice; [6]): 16.02** time; Number of Coughs (time) (KM mice; [7]): 15.13**^Δ time
10.1 to 50	C[C@@H](Cn1c(=O)cc(Nc2ccc(Oc3ncccc3F)cc2)n(Cc2ccc(Cl)cc2)c1=O)C(=O)O [Comparative Example 1, reference compound]	25.61* time	–	cough suppressing effect at 120 min (KM mice; 30 mg/kg, 120 min after administration): did not have a significant cough suppressing effect at 120 min; Number of Coughs (time) (KM mice; [6]): 24.12** time; Number of Coughs (time) (KM mice; [7]): 44.17 time
50.1 to 100	C[C@@H](Cn1c(=O)cc(Nc2ccc(Oc3ncccn3)cc2)n(Cc2ccc(Cl)cc2)c1=O)C(=O)NS(C)(=O)=O [Compound 22]	35.61 time	–	–
10.1 to 50	COC(=O)C(C)(C)Cn1c(=O)cc(Nc2ccc(Oc3ccccn3)cc2)n(Cc2ccc(Cl)cc2)c1=O [Compound 11]	31.00 time	–	–
